The target in assay [1] is human Adenosine A1 receptor (Homo sapiens (Human), UniProt P30542). The assay can be described thus: Adenosine receptor TR-FRET binding assay (A1). Conditions: inhibition of binding of 100 nM CA200645; CHO cell membranes; Ki from IC50 by Cheng and Prusoff. Here is the method:
(§1) All FRET binding experiments were conducted at room temperature in white 384-well plates, in assay binding buffer containing 1× LabMed (Cisbio, France), 100 μg/mL saponin, 1% DMSO and 0.02% pluronic acid. Binding of the fluorescently labelled Adenosine receptor antagonist XAC (CA200645, FRET acceptor) to terbium-labelled A1, A2a, A2b and A3 adenosine receptors (FRET donors) was detected by time-resolved FRET due to the close proximity of the donor and acceptor in a binding event. To investigate the ability of unlabelled test compounds to bind to Adenosine A1, A2a, A2b and A3 receptors, dose response curves were constructed that determined the ability of a range of concentrations to inhibit the binding of 30 nM CA200645 to the A2b receptor and 100 nM CA200645 to the A1, A2a, and A3 receptor.
(§2) Serial dilution (1:3 dilutions) of test compounds in neat DMSO and transfer of a 400 nL sample of test compound into the assay plate was carried out using the Mosquito (TTP Labtech, UK). The compound samples were incubated for 2 hours at room temperature with a fixed concentration of CA200645 defined for each receptor (see above) and CHO cell membranes containing the human Adenosine A1 (0.5 μg/well), A2a (0.3 μg/well), A2b (1 μg/well) or A3 (1 μg/well) receptor in 40 μL of assay buffer. Total and non-specific binding of CA200645 was determined in the absence and presence of 10 μM XAC, respectively. Following 2 hours incubation, the level of CA200645 binding was detected on a Pherastar FSX (BMG Labtech, Germany) using standard TR-FRET settings. The terbium donor was excited with three laser flashes at a wavelength of 337 nm, and donor and acceptor emission was detected at 620 nm and 665 nm wavelengths, respectively. FRET ratios were obtained by multiplying the acceptor/donor ratio value by 10,000. Specific binding was determined by subtracting the non-specific binding FRET ratio from the total binding FRET ratio. Compound IC50 curves were analysed using GraphPad Prism 7.0 (GraphPad, USA) and Ki affinity values were determined from the obtained IC50 values using the method of Cheng and Prusoff.
In general terms: TR-FRET usually uses a lanthanide donor and a delayed reading to cut background.

Assay [2] deals with human Adenosine A2a receptor (Homo sapiens (Human), UniProt P29274). Kind of assay: Adenosine receptor TR-FRET binding assay (A2a). Conditions: inhibition of binding of 100 nM CA200645; CHO cell membranes; Ki from IC50 by Cheng and Prusoff. As to the method: as §1, §2
Assay [3] addresses human Adenosine A2b receptor (Homo sapiens (Human), UniProt P29275). Kind of assay: Adenosine receptor TR-FRET binding assay (A2b). Conditions: inhibition of binding of 30 nM CA200645; CHO cell membranes; Ki from IC50 by Cheng and Prusoff. Here is the method: as §1, §2

pKi: −log10 of the molar value.

Data on 18 molecules can be found in patent US20250243194A1, “ANTAGONIST OF ADENOSINE RECEPTORS” (AdoRx Therapeutics Limited, priority 2022, published 2025).

The term pKi denotes the Ki on a negative log10 scale, so that one unit is a factor of ten.

Chain of human Adenosine A2a receptor (P29274 whole entry): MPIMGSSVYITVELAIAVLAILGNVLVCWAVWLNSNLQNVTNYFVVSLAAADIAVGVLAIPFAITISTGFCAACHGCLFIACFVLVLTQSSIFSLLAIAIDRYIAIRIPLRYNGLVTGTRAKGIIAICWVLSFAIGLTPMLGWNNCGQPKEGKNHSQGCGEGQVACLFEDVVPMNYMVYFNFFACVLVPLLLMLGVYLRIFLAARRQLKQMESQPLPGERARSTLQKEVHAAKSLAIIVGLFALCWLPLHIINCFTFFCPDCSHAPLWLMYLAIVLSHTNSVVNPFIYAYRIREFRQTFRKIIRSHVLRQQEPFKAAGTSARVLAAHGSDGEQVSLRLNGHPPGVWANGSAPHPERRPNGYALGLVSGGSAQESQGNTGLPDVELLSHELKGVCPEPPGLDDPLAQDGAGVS
Chain of human Adenosine A1 receptor (P30542 whole entry): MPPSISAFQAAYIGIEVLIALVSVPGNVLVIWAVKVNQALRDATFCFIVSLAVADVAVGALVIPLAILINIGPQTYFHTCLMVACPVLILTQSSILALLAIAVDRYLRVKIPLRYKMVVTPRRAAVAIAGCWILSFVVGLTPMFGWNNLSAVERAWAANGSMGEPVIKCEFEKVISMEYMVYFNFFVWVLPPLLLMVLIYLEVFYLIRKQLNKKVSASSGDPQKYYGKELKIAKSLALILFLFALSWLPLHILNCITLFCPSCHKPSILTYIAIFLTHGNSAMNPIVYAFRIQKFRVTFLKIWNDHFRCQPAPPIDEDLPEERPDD
Chain of human Adenosine A2b receptor (P29275 whole entry): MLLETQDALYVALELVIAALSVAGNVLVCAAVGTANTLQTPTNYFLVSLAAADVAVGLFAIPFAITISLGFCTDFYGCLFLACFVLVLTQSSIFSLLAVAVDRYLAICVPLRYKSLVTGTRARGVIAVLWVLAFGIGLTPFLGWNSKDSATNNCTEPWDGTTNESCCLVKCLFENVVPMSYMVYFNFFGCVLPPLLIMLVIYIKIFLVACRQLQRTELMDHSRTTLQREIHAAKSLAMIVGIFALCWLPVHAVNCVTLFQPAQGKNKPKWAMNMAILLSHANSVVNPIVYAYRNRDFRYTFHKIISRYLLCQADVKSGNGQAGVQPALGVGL

Take `N#Cc1cccc(-c2nc(NC(=O)N3CC4(COC4)C3)sc2-c2ccc3ncncc3c2)c1` [Example 10, N-[4-(3-Cyanophenyl)-5-quinazolin-6-yl-thiazol-2-yl]-2-oxa-6-azaspiro[3.3]heptane-6-carboxamide]: the pKi was 8.15 in assay [1], 9.07 in assay [2] and 8.33 in assay [3].
With `Cc1ncnc2ccc(-c3sc(NC(=O)N4CCN[C@H](C(C)(C)O)C4)nc3-c3cccc(C#N)c3)cc12` [Example 7.16, (3S)-N-[4-(3-Cyanophenyl)-5-(4-methylquinazolin-6-yl)thiazol-2-yl]-3-(1-hydroxy-1-methyl-ethyl)piperazine-1-carboxamide], the pKi in assay [1] was 7.77; in assay [2], 9.74; in assay [3], 8.59.
Turning to `Cc1cc(-c2sc(NC(=O)N3CC4(COC4)C3)nc2-c2cccc(C#N)c2)cc2cnn(C)c12` [Example 30, N-[4-(3-Cyanophenyl)-5-(1,7-dimethylindazol-5-yl)thiazol-2-yl]-2-oxa-6-azaspiro[3.3]heptane-6-carboxamide], the figures for the pKi in assay [1], in assay [2] and in assay [3] were 7.85, 9.23 and 7.88, respectively.
On to `Cc1ncnc2ccc(-c3sc(NC(=O)N4CCN(C5CCN(C)CC5)CC4)nc3-c3cccc(C#N)c3)cc12` [Example 7.13, N-[4-(3-Cyanophenyl)-5-(4-methylquinazolin-6-yl)thiazol-2-yl]-4-(1-methyl-4-piperidyl)piperazine-1-carboxamide], for which the pKi in assay [1] was 6.90; in assay [2], 9.00; in assay [3] it was 8.32.
In the case of `Cc1ncnc2ccc(-c3sc(NC(=O)N4CCN(C(C)C#N)CC4)nc3-c3cccc(C#N)c3)cc12` (stereo not drawn) [Example 7.5, 4-(1-Cyanoethyl)-N-[4-(3-cyanophenyl)-5-(4-methylquinazolin-6-yl)thiazol-2-yl]piperazine-1-carboxamide], the results for the pKi in assay [1], in assay [2] and in assay [3] were 8.05, 9.68 and 8.92, respectively.
For `Cc1nc(C)c2cc(-c3sc(NC(=O)N4CC5(COC5)C4)nc3-c3cccc(C#N)c3)ccc2n1` [Example 9, N-[4-(3-Cyanophenyl)-5-(2,4-dimethylquinazolin-6-yl)thiazol-2-yl]-2-oxa-6-azaspiro[3.3]heptane-6-carboxamide], the values for the pKi in assay [1], in assay [2] and in assay [3] were 7.15, 8.26 and 8.22, respectively.
On to `Cc1ncnc2ccc(-c3sc(NC(=O)N4CCC(OCCN5CCCC5)C4)nc3-c3cccc(C#N)c3)cc12` (stereo not drawn) [Example 7.9, N-[4-(3-Cyanophenyl)-5-(4-methylquinazolin-6-yl)thiazol-2-yl]-3-(2-pyrrolidin-1-ylethoxy)pyrrolidine-1-carboxamide], for which the figures for the pKi in assay [1], in assay [2] and in assay [3] were 7.68, 10.00 and 8.72, respectively.
`Cc1ncnc2ccc(-c3sc(NC(=O)N4CCN(CC#N)CC4)nc3-c3cccc(C#N)c3)cc12` [Example 7.15, 4-(Cyanomethyl)-N-[4-(3-cyanophenyl)-5-(4-methylquinazolin-6-yl)thiazol-2-yl]piperazine-1-carboxamide]: the figures for the pKi in assay [1], in assay [2] and in assay [3] were 7.85, 9.74 and 8.96, respectively.
On to `Cc1ncnc2ccc(-c3sc(NC(=O)N4CCN(C(C)(C)C#N)CC4)nc3-c3cccc(C#N)c3)cc12` [Example 7.2, 4-(1-Cyano-1-methyl-ethyl)-N-[4-(3-cyanophenyl)-5-(4-methylquinazolin-6-yl)thiazol-2-yl]piperazine-1-carboxamide], for which the pKi is 8.05 in assay [1], 9.70 in assay [2] and 8.82 in assay [3].
With `Cc1nc(C)c(-c2sc(NC(=O)N3CC4(COC4)C3)nc2-c2cccc(C#N)c2)o1` [Example 15, N-[4-(3-Cyanophenyl)-5-(2,4-dimethyloxazol-5-yl)thiazol-2-yl]-2-oxa-6-azaspiro[3.3]heptane-6-carboxamide], the results for the pKi in assay [1], in assay [2] and in assay [3] were 7.85, 8.76 and 8.21, respectively.
The corresponding values for `Cc1cc(-c2sc(NC(=O)N3CC4(COC4)C3)nc2-c2cccc(C#N)c2)c2ccn(C)c2n1` [Example 24, N-[4-(3-Cyanophenyl)-5-(1,6-dimethylpyrrolo[2,3-b]pyridin-4-yl)thiazol-2-yl]-2-oxa-6-azaspiro[3.3]heptane-6-carboxamide] are 6.61, 7.98 and 8.14.
On to `Cc1ncnc2ccc(-c3sc(NC(=O)N4CCC(N5CCN(C)CC5)CC4)nc3-c3cccc(C#N)c3)cc12` [Example 7.12, N-[4-(3-Cyanophenyl)-5-(4-methylquinazolin-6-yl)thiazol-2-yl]-4-(4-methylpiperazin-1-yl)piperidine-1-carboxamide], for which the pKi in assay [1] was 6.66; in assay [2], 8.69; in assay [3] it was 8.19.
Regarding `Cc1ncnc2ccc(-c3sc(NC(=O)N4CC[C@](C)(C#N)C4)nc3-c3cccc(C#N)c3)cc12` [Example 1, (3S)-3-Cyano-N-[4-(3-cyanophenyl)-5-(4-methylquinazolin-6-yl)thiazol-2-yl]-3-methyl-pyrrolidine-1-carboxamide], the pKi was 8.70 in assay [1], 9.92 in assay [2] and 9.05 in assay [3].
For `Cc1nc(C)c(-c2sc(NC(=O)N3CCC(C)(C#N)CC3)nc2-c2cccc(C#N)c2)o1` [Example 14, 4-Cyano-N-[4-(3-cyanophenyl)-5-(2,4-dimethyloxazol-5-yl)thiazol-2-yl]-4-methyl-piperidine-1-carboxamide], the pKi in assay [1] is 7.92; in assay [2], 9.38; in assay [3] it was 8.55.
Turning to `Cc1ncnc2ccc(-c3sc(NC(=O)N4CCN(CCO)CC4)nc3-c3cccc(C#N)c3)cc12` [Example 7.27, N-[4-(3-Cyanophenyl)-5-(4-methylquinazolin-6-yl)thiazol-2-yl]-4-(2-hydroxyethyl)piperazine-1-carboxamide], the pKi was 7.57 in assay [1], 9.32 in assay [2] and 8.51 in assay [3].
On to `CCc1ncnc2ccc(-c3sc(NC(=O)N4CC5(COC5)C4)nc3-c3cccc(C#N)c3)cc12` [Example 13, N-[4-(3-Cyanophenyl)-5-(4-ethylquinazolin-6-yl)thiazol-2-yl]-2-oxa-6-azaspiro[3.3]heptane-6-carboxamide], for which the pKi was 8.70 in assay [1], 9.80 in assay [2] and 8.77 in assay [3].
As for `Cc1ncnc2ccc(-c3sc(NC(=O)N4CCC5(CC4)CN(C)CCO5)nc3-c3cccc(C#N)c3)cc12` [Example 7.10, N-[4-(3-Cyanophenyl)-5-(4-methylquinazolin-6-yl)thiazol-2-yl]-4-methyl-1-oxa-4,9-diazaspiro[5.5]undecane-9-carboxamide], the pKi in assay [1] is 7.92; in assay [2] it was 9.38; in assay [3] it was 8.55.
`Cc1ncnc2ccc(-c3sc(NC(=O)N4CCO[C@H](C(C)(C)O)C4)nc3-c3cccc(C#N)c3)cc12` (single isomer, unassigned) [Example 7.7b, (2S)—N-[4-(3-Cyanophenyl)-5-(4-methylquinazolin-6-yl)thiazol-2-yl]-2-(1-hydroxy-1-methyl-ethyl)morpholine-4-carboxamide or (2R)—N-[4-(3-cyanophenyl)-5-(4-methylquinazolin-6-yl)thiazol-2-yl]-2-(1-hydroxy-1-methyl-ethyl)morpholine-4-carboxamide]: the pKi is 8.05 in assay [1], 9.70 in assay [2] and 8.82 in assay [3].
